Measurements published in patent publication US20110319392A1, “Thiazole Sulfonamide And Oxazole Sulfonamide Kinase Inhibitors” (priority 2009, published 2011).

How the values were obtained:
[1] = system: SK-MEL-3 tumor cells; assay: Cell growth inhibition assay (CellTiter-Glo), SK-MEL-3; assay type: cell-based, Human; settings: for IC50: Homo sapiens, SK-MEL3
Description: (§1) Human breast tumor cells (BT474) were cultured in RPMI (Mediatech […]), containing 10% FBS (JRH Biosciences 12176) and 1% penicillin-streptomycin (Invitrogen 15140). Human head and neck tumor cells (HN5) were cultured in high glucose DMEM (Mediatech 50-013-PB) containing 10% FBS and 1% penicillin-streptomycin. Human colon tumor cells (Colo205) were cultured in RPMI (Mediatech 50-020-PB) containing 10% FBS and 1% penicillin-streptomycin. Human melanoma cancer cells (SK-MEL-28) were cultured in EMEM with nonessential amino acids (Mediatech 50-011-PB) containing 10% FBS, 1% sodium pyruvate (JT Baker 3354-04), and 1% penicillin-streptomycin. Human melanoma cancer cells (A375P F11s) were cultured in RPMI (Mediatech 50-020-PB) containing 10% FBS, 1% sodium pyruvate, and 1% penicillin-streptomycin. Human colon cancer cells (HT-29) were cultured in high glucose DMEM (Mediatech 50-013-PB) containing 10% FBS and 1% penicillin-streptomycin. Human melanoma cancer cells (SK-MEL-3) were cultured in McCoy's 5A (50-025-PB) containing 15% FBS, and 1% penicillin-streptomycin. All cell lines were maintained at 37° C. in a humidified 5% CO2, 95% air incubator. Cells were harvested using trypsin/EDTA (Invitrogen 25200), counted using a haemocytometer, and plated. For 96-well assays (using white full-area NUNC plates cat. #136102), cells were plated in 105 μL at the following densities (cells/well): HNS, 500; Colo 205, 500; SK-MEL-28, 500; A375P F11s, 500; HT-29, 500; SK-MEL-3, 500; and BT474, 3000. For 384-well assays (white full-area NUNC plates, cat. #781080), cells were plated in 48 μL at the following densities (cells/well): HNS, 500; Colo205, 500; SK-MEL-28, 500; A375P F11s, 500; HT-29, 500; SK-MEL-3, 500; and BT474, 2000.
(§2) The next day, compounds were diluted as follow: For 96-well assays, 13.5 μL of compound in DMSO were diluted using nine (9) serial 1:3 dilutions of 4.5 μL in 9 of DMSO. Medium (270 μL/well of RPMI with 10% FBS and 1% penicillin-streptomycin) was added to the plates. Aliquots (7 μL) were added to cells in the final assay giving a final DMSO concentration of 0.2%. For 384-well assays, 15 μL of compound in DMSO were diluted using nine (9) serial 1:3 dilutions of 5 μL in 10 μL of DMSO, followed by a further dilution of 5 μL of compound with 95 μL of medium, of which 2 μL were added to cells in the final assay giving a final DMSO concentration of 0.2%. Cells were incubated at 37° C., 5% CO2 for 3 days.
(§3) Total ATP was measured (as a surrogate estimate of cell number) using CellTiter-Glo® reagent (Promega G7571). Briefly, plates were removed from the incubator and allowed to equilibrate to room temperature for 30 minutes. CellTiter-Glo® (25 μL or 55 μL for 384-well or 96-well assays, respectively) reagent was added to each well and plates were shaken on an orbital plate shaker for 2 minutes. Plates were incubated without shaking for a further 30 minutes and read on an LJL Analyst GT reader in luminometer mode with an integration time of 0.5 seconds per well. Percent inhibition of cell growth was calculated relative to DMSO vehicle-treated control wells. Concentration of compound required to give 50% inhibition of vehicle-treated control cell growth (IC50) was interpolated using a 4-parameter fit for determining IC50 using the following equation: Y=A +((B−A)/(1+((C/X)̂D))) where […].

[2] = system: HT-29 tumor cells; assay: Cell growth inhibition assay (CellTiter-Glo), HT-29; assay type: cell-based, Human; settings: for IC50: Homo sapiens
Description: as §1, §2, §3

[3] = system: A375P F11s tumor cells; assay: Cell growth inhibition assay (CellTiter-Glo), A375P F11s; assay type: cell-based, Human; settings: for IC50: Homo sapiens
Description: as §1, §2, §3

[4] = target: T1, EGFR (Homo sapiens, UniProt P00533); assay: EGFR substrate phosphorylation assay (HTRF); assay type: biochemical
T1 construct: made in house; host or cells: baculovirus expression system
Outline: (§4)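 Baculovirus-expressed EGFR (0.8 nM) or ErbB2 (10 nM) in enzyme mix, preincubated 1 h at 20 °C with compound (0.00027–47.6 μM final), then 90 min at 20 °C with substrate mix of 20 μM ATP, 0.8 uM biotinylated Peptide C, MnCl2, MOPS pH 7.5. Phosphotyrosine by HTRF; pIC50 reported.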

[5] = system: SK-MEL-28 tumor cells; assay: Cell growth inhibition assay (CellTiter-Glo), SK-MEL-28; assay type: cell-based, Human; settings: Homo sapiens, SK-MEL-28, 72 h; 3 days incubation
Outline: (§5)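 Cells plated at 500 cells/well in their growth media, dosed next day with nine-step 1:3 compound dilutions (final DMSO 0.2%), then incubated 3 days at 37° C, 5% CO2. Total ATP read by CellTiter-Glo luminescence as a surrogate for cell number; IC50 interpolated from 4-parameter fit versus DMSO controls.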

[6] = system: Colo205 tumor cells; assay: Cell growth inhibition assay (CellTiter-Glo), Colo205; assay type: cell-based, Human; settings: Homo sapiens, COLO 205, 72 h; 3 days incubation
Outline: as §5

[7] = system: HN5 tumor cells; assay: Cell growth inhibition assay (CellTiter-Glo), HN5; assay type: cell-based, Human; settings: Homo sapiens, 72 h; 3 days incubation
Description: as §1, §2, §3

[8] = system: BT474 tumor cells; assay: Cell growth inhibition assay (CellTiter-Glo), BT474; assay type: cell-based, Human; settings: Homo sapiens, BT-474, 72 h, 3 days incubation
Description: as §1, §2, §3

[9] = target: B-Raf (Homo sapiens, UniProt P15056); assay: B-Raf Accelerated MEK ATPase assay (BRAMA), Method A or B; assay type: biochemical; settings: Method B: final MEK 150 nM, single end point read
Outline: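 Activated Raf plus non-phosphorylated MEK drives MEK-mediated ATP hydrolysis; ADP formation coupled via pyruvate kinase/lactate dehydrogenase to NADH oxidation. Method A read kinetically; Method B used 150 nM final MEK and a single end-point read.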

[10] = target: T2, ErbB2 (Homo sapiens, UniProt P04626); assay: ErbB-2 substrate phosphorylation assay (HTRF); assay type: biochemical
T2 construct: made in house; host or cells: baculovirus expression system
Outline: as §4

B-Raf, sequence (P15056 whole entry): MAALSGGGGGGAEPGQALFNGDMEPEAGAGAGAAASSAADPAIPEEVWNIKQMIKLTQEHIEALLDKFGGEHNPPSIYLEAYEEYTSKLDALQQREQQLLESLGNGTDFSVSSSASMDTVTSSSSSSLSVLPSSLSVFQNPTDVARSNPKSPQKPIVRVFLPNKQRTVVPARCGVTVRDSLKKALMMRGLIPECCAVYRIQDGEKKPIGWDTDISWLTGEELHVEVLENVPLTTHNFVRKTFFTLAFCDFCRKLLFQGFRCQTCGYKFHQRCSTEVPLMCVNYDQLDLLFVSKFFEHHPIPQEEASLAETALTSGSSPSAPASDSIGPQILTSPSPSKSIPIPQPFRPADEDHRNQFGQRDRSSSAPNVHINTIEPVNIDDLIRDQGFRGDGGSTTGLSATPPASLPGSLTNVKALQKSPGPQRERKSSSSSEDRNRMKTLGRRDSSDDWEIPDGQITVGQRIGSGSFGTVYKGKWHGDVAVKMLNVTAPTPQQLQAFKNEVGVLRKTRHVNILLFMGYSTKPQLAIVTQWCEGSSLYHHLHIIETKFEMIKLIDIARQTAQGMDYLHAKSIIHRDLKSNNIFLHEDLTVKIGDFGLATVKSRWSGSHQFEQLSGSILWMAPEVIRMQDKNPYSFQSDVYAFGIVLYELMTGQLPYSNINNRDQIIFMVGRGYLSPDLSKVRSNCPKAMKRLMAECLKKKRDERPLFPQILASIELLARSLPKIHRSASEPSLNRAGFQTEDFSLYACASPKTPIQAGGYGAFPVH
T2 sequence (P04626 23-1255): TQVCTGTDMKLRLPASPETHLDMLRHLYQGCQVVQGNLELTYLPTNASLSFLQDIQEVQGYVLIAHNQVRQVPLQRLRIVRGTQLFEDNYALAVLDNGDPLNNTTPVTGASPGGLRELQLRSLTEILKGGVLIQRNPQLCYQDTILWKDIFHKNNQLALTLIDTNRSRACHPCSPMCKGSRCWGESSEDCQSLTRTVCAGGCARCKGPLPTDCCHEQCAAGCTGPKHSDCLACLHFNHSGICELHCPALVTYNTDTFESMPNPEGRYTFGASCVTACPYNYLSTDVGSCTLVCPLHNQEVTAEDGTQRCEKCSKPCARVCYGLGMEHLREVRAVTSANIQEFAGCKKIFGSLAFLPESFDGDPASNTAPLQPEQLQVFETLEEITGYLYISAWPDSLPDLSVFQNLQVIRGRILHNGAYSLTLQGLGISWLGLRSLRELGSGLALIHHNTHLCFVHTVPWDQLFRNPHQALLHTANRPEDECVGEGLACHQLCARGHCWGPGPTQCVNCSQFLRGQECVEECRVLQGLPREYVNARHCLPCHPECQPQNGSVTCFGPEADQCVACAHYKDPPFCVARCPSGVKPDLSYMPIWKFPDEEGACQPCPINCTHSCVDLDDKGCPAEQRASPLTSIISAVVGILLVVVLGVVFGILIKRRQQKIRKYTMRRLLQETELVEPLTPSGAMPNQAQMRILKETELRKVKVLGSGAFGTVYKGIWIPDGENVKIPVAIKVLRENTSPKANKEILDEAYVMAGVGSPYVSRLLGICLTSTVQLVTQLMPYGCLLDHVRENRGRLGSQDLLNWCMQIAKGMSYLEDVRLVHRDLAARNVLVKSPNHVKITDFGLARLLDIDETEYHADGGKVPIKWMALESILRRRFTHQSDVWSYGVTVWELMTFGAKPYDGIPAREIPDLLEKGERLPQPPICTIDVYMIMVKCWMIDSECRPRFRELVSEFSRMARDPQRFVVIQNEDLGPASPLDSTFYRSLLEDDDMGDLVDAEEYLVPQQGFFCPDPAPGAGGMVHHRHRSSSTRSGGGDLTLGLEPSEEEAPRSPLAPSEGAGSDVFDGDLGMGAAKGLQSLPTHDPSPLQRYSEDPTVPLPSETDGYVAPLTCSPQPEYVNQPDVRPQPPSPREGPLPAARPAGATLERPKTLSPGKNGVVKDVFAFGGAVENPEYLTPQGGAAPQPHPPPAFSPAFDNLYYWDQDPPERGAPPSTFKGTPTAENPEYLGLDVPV
T1 sequence (P00533 25-1210): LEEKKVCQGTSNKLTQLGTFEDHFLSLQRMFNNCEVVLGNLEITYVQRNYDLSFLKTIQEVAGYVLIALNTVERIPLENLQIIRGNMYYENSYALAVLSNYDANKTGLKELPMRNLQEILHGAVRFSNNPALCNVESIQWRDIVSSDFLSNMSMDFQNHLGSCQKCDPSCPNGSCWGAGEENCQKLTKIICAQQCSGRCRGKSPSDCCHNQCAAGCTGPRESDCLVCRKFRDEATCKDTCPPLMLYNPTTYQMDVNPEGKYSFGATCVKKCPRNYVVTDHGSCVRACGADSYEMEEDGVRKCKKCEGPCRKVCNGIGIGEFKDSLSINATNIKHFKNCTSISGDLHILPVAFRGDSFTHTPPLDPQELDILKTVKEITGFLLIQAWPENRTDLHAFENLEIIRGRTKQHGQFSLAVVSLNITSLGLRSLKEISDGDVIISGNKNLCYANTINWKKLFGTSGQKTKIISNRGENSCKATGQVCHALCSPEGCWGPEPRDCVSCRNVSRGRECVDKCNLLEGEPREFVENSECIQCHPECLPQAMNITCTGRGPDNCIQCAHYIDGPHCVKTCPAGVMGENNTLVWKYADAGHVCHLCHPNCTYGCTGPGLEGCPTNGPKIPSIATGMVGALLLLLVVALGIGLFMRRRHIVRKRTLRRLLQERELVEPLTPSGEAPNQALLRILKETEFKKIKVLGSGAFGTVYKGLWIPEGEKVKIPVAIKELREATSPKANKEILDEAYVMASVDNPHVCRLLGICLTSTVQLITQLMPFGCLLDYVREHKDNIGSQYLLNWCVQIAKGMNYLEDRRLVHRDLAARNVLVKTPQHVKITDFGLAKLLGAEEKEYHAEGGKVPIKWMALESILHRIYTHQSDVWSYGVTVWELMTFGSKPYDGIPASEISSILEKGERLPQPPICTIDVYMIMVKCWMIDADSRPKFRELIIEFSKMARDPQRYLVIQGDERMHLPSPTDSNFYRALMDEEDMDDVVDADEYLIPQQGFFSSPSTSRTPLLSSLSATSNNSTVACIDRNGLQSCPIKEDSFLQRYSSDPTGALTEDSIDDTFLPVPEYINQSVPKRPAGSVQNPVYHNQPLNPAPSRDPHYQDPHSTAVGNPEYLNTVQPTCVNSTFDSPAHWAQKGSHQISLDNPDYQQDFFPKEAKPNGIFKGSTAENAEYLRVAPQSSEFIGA

Structure (SMILES): COCCN1CCN(c2ccc(Nc3nccc(-c4sc(C(C)C)nc4-c4cccc(NS(=O)(=O)c5ccccc5)c4)n3)cn2)CC1.Cl [Example 7]
- Activity in SK-MEL-3 Tumor Cells [1]: +++ (activity of less than 100 nM in SK-MEL-3 tumor cells)
- Activity in HT-29 Tumor Cells [2]: +++ (activity of less than 100 nM in HT-29 tumor cells)
- Activity in A375P F11s Tumor Cells [3]: +++ (activity of less than 100 nM in A375P F11s tumor cells)

Structure (SMILES): CCc1nc(-c2ccc(F)c(NS(=O)(=O)c3ccccc3)c2)c(-c2ccnc(Nc3ccc(N4CCN(C(C)=O)CC4)nc3)n2)s1 [Example 66]
- IC50 [4]: > 1000 nM
- IC50 [5]: 100 to 1000 nM
- IC50 [2]: > 1000 nM
- IC50 [6]: 100 to 1000 nM
- IC50 [7]: > 1000 nM
- IC50 [8]: > 1000 nM
- IC50 [9]: < 100 nM
- IC50 [10]: > 1000 nM

Structure (SMILES): CC(C)(F)c1nc(-c2cccc(NS(=O)(=O)c3c(F)cccc3F)c2)c(-c2ccnc(Nc3ccc(N4CCN(CCF)CC4)c(F)c3)n2)s1 [Example 94]
- IC50 [4]: > 1000 nM
- IC50 [5]: < 100 nM
- IC50 [2]: < 100 nM
- IC50 [6]: < 100 nM
- IC50 [7]: > 1000 nM
- IC50 [8]: > 1000 nM
- IC50 [9]: 100 to 1000 nM
- IC50 [10]: > 1000 nM

Structure (SMILES): CC(C)(F)c1nc(-c2ccc(F)c(NS(=O)(=O)c3c(F)cccc3F)c2)c(-c2ccnc(Nc3ccc(N4CCOCC4)nc3)n2)s1 [Example 103]
- IC50 [4]: > 1000 nM
- IC50 [5]: 100 to 1000 nM
- IC50 [6]: 100 to 1000 nM
- IC50 [9]: 100 to 1000 nM
- IC50 [10]: > 1000 nM

Structure (SMILES): CC(C)c1nc(-c2cccc(NS(=O)(=O)c3cn(C)nc3C(F)(F)F)c2)c(-c2ccnc(Nc3ccc(N4CCOCC4)nc3)n2)s1 [Example 40]
- IC50 [4]: > 1000 nM
- IC50 [5]: > 1000 nM
- IC50 [6]: > 1000 nM
- IC50 [9]: 100 to 1000 nM
- IC50 [10]: > 1000 nM

Structure (SMILES): COc1cc(N2CCN(CCS(C)(=O)=O)CC2)c(C)cc1Nc1nccc(-c2scnc2-c2cccc(NS(=O)(=O)c3c(F)cccc3F)c2)n1 [Example 163]
- IC50 [4]: < 100 nM
- IC50 [5]: 100 to 1000 nM
- IC50 [6]: 100 to 1000 nM
- IC50 [9]: 100 to 1000 nM
- IC50 [10]: < 100 nM

Structure (SMILES): COc1cc(CCN2CCCCC2)c(F)cc1Nc1nccc(-c2sc(C(C)C)nc2-c2cccc(NS(=O)(=O)c3c(F)cccc3F)c2)n1 [Example 156]
- IC50 [4]: 100 to 1000 nM
- IC50 [5]: 100 to 1000 nM
- IC50 [6]: 100 to 1000 nM
- IC50 [9]: < 100 nM
- IC50 [10]: 100 to 1000 nM

Structure (SMILES): COc1cc(N2CCN(CCS(C)(=O)=O)CC2)c(C)cc1Nc1nccc(-c2sc(C3CCCC3)nc2-c2cccc(NS(=O)(=O)c3c(F)cccc3F)c2)n1 [Example 149]
- IC50 [4]: > 1000 nM
- IC50 [5]: 100 to 1000 nM
- IC50 [6]: < 100 nM
- IC50 [9]: 100 to 1000 nM
- IC50 [10]: 100 to 1000 nM

Structure (SMILES): COc1cc(N2CCN(CCS(C)(=O)=O)CC2)c(C)cc1Nc1nccc(-c2sc(C(C)C)nc2-c2cccc(NS(=O)(=O)c3c(F)cccc3F)n2)n1 [Example 45]
- IC50 [4]: < 100 nM
- IC50 [5]: 100 to 1000 nM
- IC50 [6]: 100 to 1000 nM
- IC50 [9]: 100 to 1000 nM
- IC50 [10]: < 100 nM

Structure (SMILES): O=S(=O)(Nc1cccc(-c2nc(-c3ccc(F)c(Cl)c3)sc2-c2ccnc(Nc3ccc(N4CCOCC4)nc3)n2)c1F)c1c(F)cccc1F [Example 143]
- IC50 [4]: > 1000 nM
- IC50 [5]: < 100 nM
- IC50 [6]: 100 to 1000 nM
- IC50 [9]: < 100 nM
- IC50 [10]: > 1000 nM

Structure (SMILES): COc1c(NS(=O)(=O)c2c(F)cccc2F)cccc1-c1nc(N2CCOCC2)sc1-c1ccnc(Nc2ccc3c(c2)OCCO3)n1 [Example 170]
- IC50 [4]: > 1000 nM
- IC50 [5]: 100 to 1000 nM
- IC50 [1]: 100 to 1000 nM
- IC50 [2]: 100 to 1000 nM
- IC50 [6]: < 100 nM
- IC50 [3]: 100 to 1000 nM
- IC50 [9]: < 100 nM
- IC50 [10]: > 1000 nM

Structure (SMILES): COc1cc(C2CCN(CCS(C)(=O)=O)CC2)c(C)cc1Nc1nccc(-c2sc(C(C)C)nc2-c2cccc(NS(=O)(=O)c3c(F)cccc3F)c2)n1 [Example 115]
- IC50 [4]: > 1000 nM
- IC50 [5]: < 100 nM
- IC50 [1]: 100 to 1000 nM
- IC50 [2]: 100 to 1000 nM
- IC50 [6]: 100 to 1000 nM
- IC50 [3]: 100 to 1000 nM
- IC50 [9]: < 100 nM
- IC50 [10]: > 1000 nM

Structure (SMILES): Cc1cc(CS(C)(=O)=O)ccc1Nc1nccc(-c2sc(C(C)C)nc2-c2ccc(F)c(NS(=O)(=O)c3c(F)cccc3F)c2)n1 [Example 138]
- IC50 [4]: > 1000 nM
- IC50 [5]: < 100 nM
- IC50 [6]: 100 to 1000 nM
- IC50 [9]: < 100 nM
- IC50 [10]: > 1000 nM

Structure (SMILES): COc1cc(N2CCN(CCS(C)(=O)=O)CC2)c(C)cc1Nc1nccc(-c2sc(C3CCOCC3)nc2-c2cccc(NS(=O)(=O)c3c(F)cccc3F)c2)n1 [Example 150]
- IC50 [4]: < 100 nM
- IC50 [5]: < 100 nM
- IC50 [6]: < 100 nM
- IC50 [9]: < 100 nM
- IC50 [10]: < 100 nM

Structure (SMILES): CCNc1nc(-c2cccc(NS(=O)(=O)c3c(F)cccc3F)c2)c(-c2ccnc(Nc3cc(C)c(N4CCN(CCS(C)(=O)=O)CC4)cc3OC)n2)s1 [Example 153]
- IC50 [4]: < 100 nM
- IC50 [5]: 100 to 1000 nM
- IC50 [6]: < 100 nM
- IC50 [9]: < 100 nM
- IC50 [10]: < 100 nM

Structure (SMILES): O=S(=O)(Nc1cccc(-c2nc(N3CCCCC3)sc2-c2ccnc(Nc3ccc(N4CCOCC4)c(F)c3)n2)c1)c1c(F)cccc1F [Example 154]
- IC50 [4]: > 1000 nM
- IC50 [5]: < 100 nM
- IC50 [6]: < 100 nM
- IC50 [9]: < 100 nM
- IC50 [10]: > 1000 nM
